Experimental data as given in paper PMC6915745, “TRIB3 supports breast cancer stemness by suppressing FOXO1 degradation and enhancing SOX2 transcription” (Nature Communications, 2019).

Key:
[1] = tested on: FOXO1; experiment: FOXO1 protein stability (cycloheximide chase), MCF7 cells; type: cell-based, human; details: CHX 20 μM plus BAF 200 nM or MG132 10 μM, in words
Experimental: Fig. 5 TRIB3 stabilizes the FOXO1 protein by suppressing its ubiquitination. a, b HMLE cells transfected with a TRIB3-expressing vector vs. a control vector (a) or MCF7 cells transfected with TRIB3-shRNA vs. CTRL-shRNA (b) were incubated with 20 μM cycloheximide (CHX) for the indicated times. c, d The effect of TRIB3 depletion on FOXO1 degradation in vitro. MCF7 cells (c) were incubated with CHX (20 μM), CHX plus bafilomycin (BAF, 200 nM), or MG132 (10 μM) for the indicated times. Control or TRIB3-silenced MCF7 cells (d, top) and MDA-MB-231 cells (d, bottom) were incubated with DMSO, 200 nM BAF, or 10 μM MG132 for 8 h. The indicated proteins were detected by immunoblotting. e, f FOXO1 activity in HMLE cells (e) transfected with a control vector or a TRIB3-expressing vector, or in MCF7 cells (f) transfected with CTRL-shRNA or TRIB3-shRNA and either a control vector or a FOXO1-expressing vector. g, h The effect of TRIB3 on FOXO1 ubiquitination. HMLE (g) or MCF7 cells (h) were transfected with the indicated plasmid. His-ubiquitin-conjugated proteins were pulled down from cell lysates. Total protein lysates and Ni-NTA-agarose eluates were immunoblotted for FLAG, His, and TRIB3. Source data are provided as a Source Data file. […] I left them out because their labels are genetic constructs, not substances; their digits are also small
(§1) Cycloheximide (CHX; Sigma Aldrich, R750107) was used as a protein synthesis inhibitor to assess the stability of the existing proteins. To assess protein stability, cells were treated with 20 μM CHX and the proteasome inhibitor MG132 (Sigma Aldrich, R750107) at 10 μM or the autophagy inhibitor BAF (Sigma Aldrich, B1793) at 200 nM for the indicated times. Protein expression was assessed via immunoblot analysis with cell lysates (20–60 μg) prepared in RIPA lysis buffer containing protease inhibitors (Roche) using anti-SOX2 (3529), anti-NANOG (4903), anti-OCT4 (2750), anti-KLF4 (4038), anti-c-Myc (13987), anti-FOXO1 (2880), anti-p-FOXO1 (9461), anti-AKT (4685), anti-p-AKT (4060), anti-β-ACTIN (4970), anti-Ubiquitin (3936), or anti-LaminA/C (4777) antibodies from CST; anti-TRIB3 antibody (ab75846) from Abcam; and anti-Trib3 antibody (PA5-15480) from Thermo Fisher Scientific[59]. All antibodies were used at 1:1000 dilution, with the exception of anti-β-Actin antibodies, which were used at 1:2000 dilution. The protein concentrations were determined by BCA Protein Assay Kits (Pierce). Proteins were separated by SDS-polyacrylamide gel electrophoresis (PAGE) and transferred to polyvinylidene difluoride membrane.

[2] = tested on: FOXO1; experiment: FOXO1 immunoblot in control or TRIB3-silenced MCF7 cells with BAF or MG132; type: cell-based, human; details: BAF 200 nM or MG132 10 μM, 8 h, in words
Experimental: (§2) Fig. 5 TRIB3 stabilizes the FOXO1 protein by suppressing its ubiquitination. a, b HMLE cells transfected with a TRIB3-expressing vector vs. a control vector (a) or MCF7 cells transfected with TRIB3-shRNA vs. CTRL-shRNA (b) were incubated with 20 μM cycloheximide (CHX) for the indicated times. c, d The effect of TRIB3 depletion on FOXO1 degradation in vitro. MCF7 cells (c) were incubated with CHX (20 μM), CHX plus bafilomycin (BAF, 200 nM), or MG132 (10 μM) for the indicated times. Control or TRIB3-silenced MCF7 cells (d, top) and MDA-MB-231 cells (d, bottom) were incubated with DMSO, 200 nM BAF, or 10 μM MG132 for 8 h. The indicated proteins were detected by immunoblotting. e, f FOXO1 activity in HMLE cells (e) transfected with a control vector or a TRIB3-expressing vector, or in MCF7 cells (f) transfected with CTRL-shRNA or TRIB3-shRNA and either a control vector or a FOXO1-expressing vector. g, h The effect of TRIB3 on FOXO1 ubiquitination. HMLE (g) or MCF7 cells (h) were transfected with the indicated plasmid. His-ubiquitin-conjugated proteins were pulled down from cell lysates. Total protein lysates and Ni-NTA-agarose eluates were immunoblotted for FLAG, His, and TRIB3. […]
(§3) Cycloheximide (CHX; Sigma Aldrich, R750107) was used as a protein synthesis inhibitor to assess the stability of the existing proteins. […] The protein concentrations were determined by BCA Protein Assay Kits (Pierce). […]

[3] = tested on: FOXO1; experiment: FOXO1 immunoblot in control or TRIB3-silenced MDA-MB-231 cells with BAF or MG132; type: cell-based; details: BAF 200 nM or MG132 10 μM, 8 h, in words
Experimental: as §2, §3

[4] = target: T1, TRIB3-GST protein (Homo sapiens, UniProt Q96RU7); experiment: SPR binding kinetics of peptides to TRIB3 (BIAcore T200); details: in words
T1 construct: purchased Sino, China
T1 sequence (Q96RU7 1-358): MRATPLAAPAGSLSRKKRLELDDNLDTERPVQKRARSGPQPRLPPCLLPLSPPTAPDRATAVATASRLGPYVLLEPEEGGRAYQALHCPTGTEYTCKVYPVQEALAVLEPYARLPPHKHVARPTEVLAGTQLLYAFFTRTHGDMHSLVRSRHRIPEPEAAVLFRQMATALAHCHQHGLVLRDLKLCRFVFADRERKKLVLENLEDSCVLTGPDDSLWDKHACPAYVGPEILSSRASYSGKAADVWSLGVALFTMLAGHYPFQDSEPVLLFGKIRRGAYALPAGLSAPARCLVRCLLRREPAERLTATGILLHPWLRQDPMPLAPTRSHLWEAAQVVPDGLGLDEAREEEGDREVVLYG
Experimental: Peptide Ae, alanine mutants of Ae (M1-M13), Pep2–con and Pep2–Ae were synthesized by Guoping Pharmaceutical, Co. (China). The Surface plasmon resonance binding kinetics between TRIB3 and the indicated peptides were analyzed by using a BIAcore T200 system (GE Healthcare)[14]. Briefly, TRIB3-GST protein (Sino, China) was immobilized onto four individual flow cells in a CM5 sensor chip (GE Healthcare) through a standard coupling protocol. To measure the binding kinetics, the indicated peptide (2.5~0.009 μM in 2-fold serial dilutions) and a buffer blank for baseline subtraction were sequentially injected, with a regeneration step (glycine, pH 2.5) inserted between each cycle. The equilibrium dissociation constant (KD) was calculated according to BIA-evaluation software.

[5] = tested on: TRIB3-silenced MCF7 cells; experiment: Immunoblot of AKT1/FOXO1/SOX2, TRIB3-silenced MCF7 cells with AKT1 inhibitor MK2206; type: cell-based, human; details: TRIB3-silenced MCF7 cells, 24 h
Excerpt: Fig. 6 TRIB3 abrogates the AKT-FOXO1 interaction. a Supervised clustering of MCF7 cells transfected with CTRL-shRNA or TRIB3-shRNA using the log2-transformed values for genes in the FOXO1 upstream pathway, including AMPK, ERK, PI3K, p38, and JNK clustered genes expressed in all samples. Each column represents a separate case. Z-scores from IPA depicting the subnetwork gene expression differences between CTRL-shRNA and TRIB3-shRNA cases. The Z-score heat map depicts the five FOXO1 upstream subnetworks. Each row represents the data for the subnetwork indicated in the right margin. b, c TRIB3 inhibited the activity of AKT1 in BCCs. The indicated stable expression cell extracts were prepared and the levels of the indicated proteins were detected by immunoblotting. d, e The effects of the AKT1 agonist or antagonist for TRIB3-FOXO1-SOX2 axis in BCCs. The indicated cells were treated with the AKT1 agonist SC79 or the antagonist MK2206 for 24 h. […] HMLE cell extracts were IP with an anti-AKT1 Ab and blotted with an anti-TRIB3 or anti-FOXO1 Ab in the presence of the indicated concentration of the TRIB3-GST protein. Data are shown as the mean ± SEM; P > 0.05 was considered not significant (NS); *P < 0.05, **P < 0.01, and ***P < 0.001 compared with the vector or CTRL-shRNA group. Source data are provided as a Source Data file.
as §1

[6] = tested on: TRIB3-silenced MDA-MB-231 cells; experiment: Immunoblot of AKT1/FOXO1/SOX2, TRIB3-silenced MDA-MB-231 cells with AKT1 inhibitor MK2206; type: cell-based; details: 24 hr
Experimental: as §1, with “Proteins were separated by SDS-polyacrylamide gel electrophoresis (PAGE) and transferred to polyvinylidene difluoride membrane.” left out
indicated proteins were detected by immunoblotting. […]
MK2206 for 24 hr. Cell extracts were prepared and the levels of the indicated proteins were detected […]
levels of the indicated proteins were detected by immunoblotting. […]
glucose (HG) for 24 hr was detected by Western blotting. […]

[7] = tested on: FOXO1; details: HEPG2 cells, after insulin activation of PI3K-AKT; 12-hr under sera deprivation; ref Matsuzaki et al. (2003, PNAS); cited from earlier work
[8] = target: AKT1, endogenous in human cells (human (endogenous in HMLE, MCF7, …, UniProt P31749 1-480)); experiment: cell-based or functional assay
[9] = tested on: AKT1-FOXO1 interaction; experiment: Co-IP of AKT1-FOXO1 interaction in HMLE cell extracts with TRIB3-GST protein; type: binding, human; details: IP anti-AKT1
Excerpt: Fig. 6 TRIB3 abrogates the AKT-FOXO1 interaction. a Supervised clustering of MCF7 cells transfected with CTRL-shRNA or TRIB3-shRNA using the log2-transformed values for genes in the FOXO1 upstream pathway, including AMPK, ERK, PI3K, p38, and JNK clustered genes expressed in all samples. Each column represents a separate case. Z-scores from IPA depicting the subnetwork gene expression differences between CTRL-shRNA and TRIB3-shRNA cases. The Z-score heat map depicts the five FOXO1 upstream subnetworks. Each row represents the data for the subnetwork indicated in the right margin. b, c TRIB3 inhibited the activity of AKT1 in BCCs. The indicated stable expression cell extracts were prepared and the levels of the indicated proteins were detected by immunoblotting. d, e The effects of the AKT1 agonist or antagonist for TRIB3-FOXO1-SOX2 axis in BCCs. The indicated cells were treated with the AKT1 agonist SC79 or the antagonist MK2206 for 24 h. […]
Cell pellets were lysed with coimmunoprecipitation buffer (25 mM Tri-cl (pH 7.4), 150 mM NaCl, 0.5% NP-40, 2.5 mM MgCl, 0.5 mM EDTA, 5% Glycerol), incubated with IP antibodies overnight at 4 °C with shaking, and then incubated with Protein A/G Plus-Agarose (Santa Cruz Biotechnology) for 2 h at 4 °C[15]. Interaction complexes were separated from the beads by boiling for 10 min and then subjected to SDS-PAGE and detected with immunoblotting.

Sequence of AKT1, endogenous in human cells (human (P31749 whole entry): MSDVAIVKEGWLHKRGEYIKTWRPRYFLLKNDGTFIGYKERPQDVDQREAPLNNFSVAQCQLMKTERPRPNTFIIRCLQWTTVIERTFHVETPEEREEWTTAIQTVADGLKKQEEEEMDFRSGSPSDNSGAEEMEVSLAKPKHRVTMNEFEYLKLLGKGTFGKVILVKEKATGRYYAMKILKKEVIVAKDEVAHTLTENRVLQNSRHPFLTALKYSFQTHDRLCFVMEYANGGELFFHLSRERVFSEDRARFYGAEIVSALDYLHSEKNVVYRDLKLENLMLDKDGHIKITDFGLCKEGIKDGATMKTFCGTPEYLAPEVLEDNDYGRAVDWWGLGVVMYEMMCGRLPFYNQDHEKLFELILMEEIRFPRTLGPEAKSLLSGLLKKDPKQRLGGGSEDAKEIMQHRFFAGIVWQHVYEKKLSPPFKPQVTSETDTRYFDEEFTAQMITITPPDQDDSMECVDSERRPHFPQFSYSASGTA

Molecule: CO/C1=C\C(C)=C\[C@@H](C)[C@@H](O)[C@@H](C)C/C(C)=C/C=C/[C@H](OC)[C@@H]([C@@H](C)[C@@H](O)[C@H](C)[C@@]2(O)C[C@@H](O)[C@H](C)[C@@H](C(C)C)O2)OC1=O [BAF, bafilomycin]
- degradation of FOXO1 [1]: not by the autophagy inhibitor bafilomycin
- inhibition of FOXO1 reduction caused by TRIB3 silencing [2]: not by BAF
- inhibition of FOXO1 reduction caused by TRIB3 silencing [3]: not by BAF

Molecule: AAHTAAENRV AAA [Pep2–con, reference compound]
- interaction with TRIB3 of control peptide ([4]; authors' reply to reviewers): no interaction with TRIB3

Molecule: NC1(c2ccc(-c3nc4ccn5c(=O)[nH]nc5c4cc3-c3ccccc3)cc2)CCC1 [MK2206, reference compound]
- FOXO1 and SOX2 expression [5]: rescued FOXO1 and SOX2 expression
- activity of AKT1 S473 and FOXO1 S256 [5]: suppressed the activity of AKT1^S473 and FOXO1^S256
- FOXO1 and SOX2 expression [6]: rescued FOXO1 and SOX2 expression
- activity of AKT1 S473 and FOXO1 S256 [6]: suppressed the activity of AKT1^S473 and FOXO1^S256

Molecule: insulin: insulin activation of the PI3K-AKT signaling pathway
- FOXO1 half-life [7]: approximately 6 hr

Molecule: Ae: α-helical peptide which mimics the AKT1 191–204 α-helical region (EVAHTLTENRVLQN; UniProt P31749 191-204, looked up, fragment)
- binding affinity with TRIB3, rank among α-helical peptides ([4]; SPR, series of α-helical peptides of AKT1 catalytic domain): displayed the best binding affinity with TRIB3 among all the α-helical peptides analyzed

B1: Tribbles homolog 3 (TRIB3), endogenous in human breast cancer cells (natural protein, UniProt Q96RU7 1-358, looked up)
chain: MRATPLAAPAGSLSRKKRLELDDNLDTERPVQKRARSGPQPRLPPCLLPLSPPTAPDRATAVATASRLGPYVLLEPEEGGRAYQALHCPTGTEYTCKVYPVQEALAVLEPYARLPPHKHVARPTEVLAGTQLLYAFFTRTHGDMHSLVRSRHRIPEPEAAVLFRQMATALAHCHQHGLVLRDLKLCRFVFADRERKKLVLENLEDSCVLTGPDDSLWDKHACPAYVGPEILSSRASYSGKAADVWSLGVALFTMLAGHYPFQDSEPVLLFGKIRRGAYALPAGLSAPARCLVRCLLRREPAERLTATGILLHPWLRQDPMPLAPTRSHLWEAAQVVPDGLGLDEAREEEGDREVVLYG
- half-life of FOXO1 degradation in MCF7 cells treated with Pep2–Ae (Supplementary Fig. 10d) [8]: 36 min

B2: TRIB3-GST protein: TRIB3-GST protein (Sino, China) (protein)
chain: MRATPLAAPAGSLSRKKRLELDDNLDTERPVQKRARSGPQPRLPPCLLPLSPPTAPDRATAVATASRLGPYVLLEPEEGGRAYQALHCPTGTEYTCKVYPVQEALAVLEPYARLPPHKHVARPTEVLAGTQLLYAFFTRTHGDMHSLVRSRHRIPEPEAAVLFRQMATALAHCHQHGLVLRDLKLCRFVFADRERKKLVLENLEDSCVLTGPDDSLWDKHACPAYVGPEILSSRASYSGKAADVWSLGVALFTMLAGHYPFQDSEPVLLFGKIRRGAYALPAGLSAPARCLVRCLLRREPAERLTATGILLHPWLRQDPMPLAPTRSHLWEAAQVVPDGLGLDEAREEEGDREVVLYG
modifications: left off: GST, end not stated, kept
- AKT1-FOXO1 interaction [9]: inhibited the AKT1-FOXO1 interaction by binding to AKT1
